Reference: publication PMC11855827, “High-Throughput Screening of Five Compound Libraries for Anthelmintic Activity and Toxicity Leads to the Discovery of Two Flavonoid Compounds” (International Journal of Molecular Sciences, 2025)
Read-outs that look alike come from different tables or passages of the source.

System: C. elegans
[1] = Table S2, C. elegans SS assay, 110 μM, 0 h, averages of 4 data points
[2] = Table S2, C. elegans SS assay, 110 μM, 24 h, averages of 4 data points

| SMILES | Percentage of motility inhibition 0 h [1] [%] | Percentage of motility inhibition 24 h [2] [%] | Percentage of motility inhibition 0 h (110 µM) [%] | Percentage of motility inhibition 24 h (110 µM) [%] |
| --- | --- | --- | --- | --- |
| CCOC(=O)C1=C[C@@H](OC(CC)CC)[C@H](NC(C)=O)[C@@H](N)C1.O=P(O)(O)O [Oseltamivir ( phosphate)] | 0 | 0 | – | – |
| C=C1[C@H]2C[C@H]2[C@]2(C)Cc3occ(C)c3[C@H](OC(C)=O)[C@@H]12 [Linderene acetate] | 8 | 20 | – | – |
| C[S+]([O-])CCCC/C(=N\OS(=O)(=O)O)S[C@@H]1O[C@H](CO)[C@@H](O)[C@H](O)[C@H]1O (some centres unmarked) [Glucoraphanin] | 12 | 0 | – | – |
| C/C=C(/C)C(=O)O[C@H]1C(C)=C[C@]23C(=O)[C@@H](C=C4COC(C)(C)O[C@H]4[C@]12O)[C@H]1[C@@H](C[C@H]3C)C1(C)C [Ingenol-5,20-acetonide-3-O-angelate] | 0 | 0 | – | – |
| C[C@H](CC[C@@H](O[C@@H]1O[C@H](CO[C@@H]2O[C@H](CO)[C@@H](O)[C@H](O)[C@H]2O)[C@@H](O)[C@H](O)[C@H]1O[C@@H]1O[C@H](CO)[C@@H](O)[C@H](O)[C@H]1O)C(C)(C)O)[C@H]1CC[C@@]2(C)[C@@H]3CC=C4[C@@H](CC[C@H](O[C@@H]5O[C@H](CO[C@@H]6O[C@H](CO)[C@@H](O)[C@H](O)[C@H]6O)[C@@H](O)[C@H](O)[C@H]5O)C4(C)C)[C@]3(C)CC[C@]12C [11-Deoxymogroside V] | 0 | 10 | – | – |
| Cc1ncc([N+](=O)[O-])n1CC(O)CCl (centres unmarked) [Ornidazole (Levo‐)] | 27 | 23 | – | – |
| COc1c(O[C@@H]2O[C@H](CO)[C@@H](O)[C@H](O)[C@H]2O)cc2oc(-c3ccc(O)cc3)cc(=O)c2c1O [Homoplantaginin] | 19 | 5 | – | – |
| COc1cccc(C[n+]2cn(Cc3ccccc3)c(C)c2C)c1.[Cl-] [Lepidiline C] | 0 | 0 | – | – |
| CC1(C)C[C@H]2C3=CC[C@@H]4[C@@]5(C)CC[C@H](O)[C@@](C)(CO)[C@@H]5CC[C@@]4(C)[C@]3(C)C[C@H](O)[C@@]2(CO)[C@@H](O)[C@@H]1O [Gymnemagenin] | 0 | 52 | – | – |
| O=C1CCC[C@@H]2[C@H]3CCCN4CCC[C@@H](CN12)[C@H]34 [Allomatrine] | 0 | 0 | – | – |
| CCN(CC)C(=O)c1cccc(C)c1 [DEET] | 59 | 25 | – | – |
| CCC1=C[C@@H]2CN3CCc4c([nH]c5ccccc45)[C@@](C(=O)OC)(C2)[C@@H]13.O=C(O)C(O)C(O)C(=O)O [Catharanthine (Tartrate)] | – | – | 0 | 12 |
| COc1ccc(-c2oc3c(CC=C(C)C)c(O[C@@H]4O[C@H](CO)[C@@H](O)[C@H](O)[C@H]4O)cc(O)c3c(=O)c2O[C@@H]2O[C@@H](C)[C@H](O)[C@@H](O)[C@H]2O[C@@H]2O[C@@H](C)[C@H](O)[C@@H](O)[C@H]2O)cc1 [Epmedin C] | 0 | 0 | – | – |
| CC1=CC(=O)[C@@H](O)[C@]2(C)[C@H]3[C@@H](O)[C@H](O)[C@@]4(C)OC[C@@]35[C@@H](C[C@@H]12)OC(=O)[C@H](O)[C@]54O [Bruceine D] | 25 | 54 | – | – |
| CC(C)=CCc1c(-c2ccc(O)cc2O)oc2c(CC=C(C)C)c(O)cc(O)c2c1=O [Mulberrin] | 32 | 5 | – | – |
| NC[C@H]1O[C@H](O[C@H]2[C@H](O)[C@@H](O[C@H]3O[C@H](CO)[C@@H](O)[C@H](N)[C@H]3O)[C@H](N)C[C@@H]2N)[C@H](O)[C@@H](O)[C@@H]1O.O=S(=O)(O)O [Kanamycin (sulfate)] | 22 | 7 | – | – |
